Experiments:
[1] = test system: WNV replicon; experiment: WNV replicon luciferase assay in BHK 26.5 cells (HTS, re-test, IC50); assay type: cell-based, West Nile virus; details: for IC50: West Nile virus, 24 h; for Fold decrease (HTS) / Fold decrease (Re-test): luciferase activity; for Fold decrease (HTS): 10 μM compound, 24 hours, BHK 26.5 cells; for Fold decrease (Re-test): re-checked at a single 10 μM concentration
Description: Ten micromolar concentrations of a selected compound were incubated with BHK 26.5 cells expressing luciferase whose activity is dependent upon WNV replicon replication (FIG. 1A). Primary “hits” were defined by the ability to reduce the amount of luciferase enzyme activity by more than 50%, compared to controls.
To quantify and rank the activity of the 23 remaining compound “hits”, a serial dilution of each compound was incubated with WNV replicon cells to determine the concentration that inhibits 50% of the luciferase readout (IC50s). […] A number of compounds had significant effect only at the highest, 10 μM concentration. However, several compounds had IC50s between 2 and 5 (Table 3), which is very reasonable for primary HTS hits from a compound library. Only a few compounds could cause 90% inhibition in the replicon cells at the concentrations tested.
(§1) Replicon-harboring cells were plated 96-well plates at 10,000 cells per well in MEM plus 3% FBS. 24 hours after plating, compounds were added to the wells by a Robotic liquid handler (Biomek NX) to a final concentration of 10 μM and 1% DMSO. For each 96 well plate, A1 to A8 were left open, H1 to H4 contained 1% DMSO, H5-H8 contained Mycophenolic acid (Sigma-Aldrich, St. Louis, Mo.), which was included as positive controls. After 24 hours of treatment, the media were removed and the luciferase activity expressed in the replicon cells was quantified. When cyto-toxicity was measured, duplicate 96 well plates were plated with BHK 26.5 replicon cells. One plate was used for luciferase assay and one plate was used for measuring toxicity using MTT assay.
Luciferase assay was performed by using the STEADY GLO reagent (Promega Corp. Madison, Wis.) according to the manufacturer's recommendation with slight modifications. Briefly, the culture media from the 96 wells were removed by dumping on paper towels.
100 μl of a 1:1 mixture of luciferase regent and culture media were added to the plate. After 5-minute incubation, the luminescence was read on a TOPCOUNT (PerkinElmer, Wellesley, Mass.).

[2] = test system: BHK 26.5 replicon cells; experiment: MTT toxicity assay on BHK 26.5 replicon cells; assay type: cell-based; details: MTT assay
Description: The HTS strategy follows the flowchart outlined in FIG. 2. 35,000 compounds were screened from a chemical library described below, using a cutoff of 50% reduction in luminescence readout as the criteria for further study. Upon completion of the screen, approximately 1100 compounds were selected, making the hit rate of 3%. This is considerably higher than expected, implying many false positive and/or cytotoxic compounds. Nevertheless, the compounds were picked out from the “daughter” plates and re-checked at a single 10 μM concentration. In addition, a duplicate 96 well plates were also plated and the toxicity of the compounds was determined in an MTT assay. Upon completion of these assays, most compounds were disqualified as either false positives or being toxicity to cells. As a result, only a small number of compounds were further analyzed directly from the “mother” plate stock. After IC50 determination and secondary assay to rule out luciferase inhibitors, 23 “hits” were identified.
as §1
Compound toxicity was determined by MTT assay. For the MTT assay, the cell medium was removed and the monolayers were incubated with 100 μl/well of 0.5 mg/ml MTT for 6 h at 37° C. The MTT solution was then aspirated and 100 μl/well of the 10% SDS (in 0.01N HCl) was added, followed by spectrophotometric quantitation (570 nm) of the insoluble MIT reaction product.

[3] = test system: WNV; experiment: WNV yield reduction assay (live virus) on BHK cells; assay type: cell-based, West Nile virus; details: live WNV
Description: The antiviral assay for the 309-F6 compounds was conducted on BHK cells. The virus produced in the presence of 1% DMSO or various concentrations of compounds was tittered on Vero cells. The amount of virus relative to the 1% DMSO control was plotted on the y-axis; the concentration of the compound 309F6 is shown in μM on the x-axis. Data from two independently treated wells (Test 1 and Test 2) are shown.
To measure activity against live WNV, BHK cells were plated in 96-well plates at a concentration of 12,000 cells/well. One day later the cells were infected with WNV for 1 h at an MOI of 0.05. The cells were then washed once and re-fed with fresh DMEM containing dilutions of the test compound. Plates were then incubated at 37° C. for 48 h, the supernatant collected and the WNV produced titered. For virus titration, Vero cells were plated in 96-well plates at 8000 cells/well and incubated overnight. The Vero cell monolayer were then infected for 1 h with various dilutions of the WNV supernatant, overlaid with media containing 0.6% tragacanth (ICN, CA) and incubated at 37° C. for 48 h. The culture media was then aspirated; the plate was rinsed, air-dried, and fixed with 50 μl/well acetone/methanol (50:50). Viral foci were detected for enumeration by immunostaining as described previously (15).

| Structure (SMILES) | IC50 [1] [µM] | Fold decrease (HTS) [1] [Fold] | Fold decrease (Re-test) [1] [Fold] | Toxicity (uM)* [2] [µM] | activity in the WNV infection assay [3] |
| --- | --- | --- | --- | --- | --- |
| COc1cc(OC)cc(C(=O)Nc2c3c(nn2-c2cccc(Cl)c2)CSC3)c1 [Compound 253-B10, N-[2-(3-Chloro-phenyl)-2,6-dihydro-4H-thieno[3,4-c]pyrazol-3-yl]-3,5-dimethoxy-benzamide] | 3 | 2 | 2 | >30 |  |
| NC(=O)CCS(=O)(=O)c1ccc(Cl)cc1 [Compound 2-H7, 3-(4-Chloro-benzenesulfonyl)-propionamide] | 2.5 | 4.5 | 2.5 | >20 |  |
| CCOC(=O)c1cnc2ccc(OCC)cc2c1NCc1ccccc1 [Compound 63-C10, 4-Benzylamino-6-ethoxy-quinoline-3-carboxylic acid ethyl ester] | 5 | 3.5 |  | >20 |  |
| Cc1ccc(S(=O)(=O)N2Cc3ccccc3CC2C(=O)Nc2ccc(Cl)cc2)cc1 (stereo not drawn) [Compound 42-E5, 2-(Toluene-4-sulfonyl)-1,2,3,4-tetrahydro-isoquinoline-3-carboxylic acid(4-chloro-phenyl)-amide] | 7.5 | 7 | 1.7 | >10 |  |
| Cc1cccc(-n2nc3c(c2NC(=O)c2ccc(S(=O)(=O)N4CCCCC4)cc2)CSC3)c1 [Compound 18-H5, 4-(Piperidine-1-sulfonyl)-N-(2-m-tolyl-2,6-dihydro-4H-thieno[3,4-c]pyrazol-3-yl)-benzamide] | 7.5 | 2 | 2 | >30 |  |
| O=C(Nc1c2c(nn1-c1ccc(F)cc1)CSC2)c1ccc2c(c1)OCO2 [Compound 253-F11, Benzo[1,3]dioxole-5-carboxylic acid [2-(4-fluoro-phenyl)-2,6-dihydro-4H-thieno[3,4-c]pyrazol-3-yl]-amide] | 10 | 3 | 2 | >30 |  |
| O=C1Nc2ccc(S(=O)(=O)Nc3cc(Cl)ccc3Cl)c3cccc1c23 [Compound 24-C10, 2-Oxo-1,2-dihydro-benzo[cd]indole-6-sulfonic acid (2,5-dichloro-phenyl)-amide] | 10 | 2.5 | 1.8 | >10 |  |
| COc1ccc(-n2nc3c(c2NC(=O)c2ccc(OC(C)C)cc2)CSC3)cc1 [Compound 253-F8, 4-Isopropoxy-N-[2-(4-methoxy-phenyl)-2,6-dihydro-4H-thieno[3,4-c]pyrazol-3-yl]-benzamide] | 10 | 2.5 | 2 | >30 |  |
| CC1CC(C)CN(S(=O)(=O)c2ccc(C3CCCCC3)cc2)C1 (stereo not drawn) [Compound 182-C2, 1-(4-Cyclohexyl-benzenesulfonyl)-3,5-dimethyl-piperidine] |  | 5 | 1.4 | >10 |  |
| CCC(C)NC(=O)c1cnn2c(O)c(Cc3ccccc3Cl)c(C)nc12 (stereo not drawn) [Compound 275-D9, 6-(2-Chloro-benzyl)-7-hydroxy-5-methyl-pyrazolo[1,5-a]pyrimidine-3-carboxylic acid sec-butylamide] | 7.5 | 10 | 2.9 | >10 | no detectable activity |
| COc1ccc(CCC(=O)Nc2ccc(C(=N)NO)cc2)cc1 [Compound 331-E11, N-[4-(N-Hydroxycarbamimidoyl)-phenyl]-3-(4-methoxy-phenyl)-propionamide] | 5 | 3 | 1.5 | >30 |  |
| CCOc1ccc(C(=O)Nc2c3c(nn2-c2ccc(OC)cc2)CSC3)cc1OCC [Compound 253-H8, 3,4-Diethoxy-N-[2-(4-methoxy-phenyl)-2,6-dihydro-4H-thieno[3,4-c]pyrazol-3-yl]-benzamide] | 10 | 2 | 1.5 | >30 |  |
| CCc1cccc(NC(=O)C(Cc2ccccc2)NS(=O)(=O)c2cccs2)c1 (stereo not drawn) [Compound 207-E5, N-(3-Ethyl-phenyl)-3-phenyl-2-(thiophene-2-sulfonylamino)-propionamide] | 10 | 5 | 2 | >10 |  |
| Cc1cc(C)c2nc(NC3=NC(c4ccccc4)CC(=O)N3)nc(C)c2c1 (stereo not drawn) [Compound 50-A8, 6-Phenyl-2-(4,6,8-trimethyl-quinazolin-2-ylamino)-5,6-dihydro-3H-pyrimidin-4-one] | 5 | 4.5 | 2.3 | >10 |  |
| COc1ccc(-n2nc3c(c2NC(=O)c2ccc4c(c2)OCO4)CSC3)cc1 [Compound 253-G8, Benzo[1,3]dioxole-5-carboxylic acid [2-(4-methoxy-phenyl)-2,6-dihydro-4H-thieno[3,4-c]pyrazol-3-yl]-amide] | 2.5 | 2 | 2 | >30 |  |
| Cc1ccc(-n2nc3c(c2NC(=O)C2CC2)CSC3)c(C)c1 [Compound 20-E7, Cyclopropanecarboxylic acid [2-(2,4-dimethyl-phenyl)-2,6-dihydro-4H-thieno[3,4-c]pyrazol-3-yl]-amide] | 10 | 2.3 | 2.4 | >10 |  |
